The results in this text go back to patent US20110081410A1, “THERAPEUTIC AGENT FOR LOCAL INFLAMMATION” (ST. MARIANNA UNIVERSITY, SCHOOL OFMEDICINE, priority 2005, published 2011).

Molecules are shown by their SMILES.

The subject of this assay is Synovial cells from OA patients. The conditions noted are these: retinoic acid 0.05%, 6 hours after addition, colloidal iron staining.

Protocol: Synovial cells from OA patients were cultured, and the retinoic acid nanocapsule containing calcium carbonate as an ingredient of the capsule produced in Example 1, and retinoic acid (atRA) were added thereto. Six hours after the addition, colloidal iron staining was performed to confirm the status of hyaluronic acid production. The evaluation groups were: DMSO as control, atRA, and the retinoic acid nanocapsule. The concentration of added retinoic acid was set 0.05% in both groups of atRA and retinoic acid nanocapsule.

On to `CC1=C(/C=C/C(C)=C/C=C/C(C)=C/C(=O)O)C(C)(C)CCC1` [atRA, All-trans retinoic acid], for which the Hyaluronic acid production entry is given as “confirmed”.
